The values below come from US6916826B2, “Substituted imidazo[1,2-a]pyridine derivatives” (Hoffman-La Roche Inc., priority 2001, dated 2005).

T1 sequence (P31424 21-1171 isoform P31424-2 limits assumed): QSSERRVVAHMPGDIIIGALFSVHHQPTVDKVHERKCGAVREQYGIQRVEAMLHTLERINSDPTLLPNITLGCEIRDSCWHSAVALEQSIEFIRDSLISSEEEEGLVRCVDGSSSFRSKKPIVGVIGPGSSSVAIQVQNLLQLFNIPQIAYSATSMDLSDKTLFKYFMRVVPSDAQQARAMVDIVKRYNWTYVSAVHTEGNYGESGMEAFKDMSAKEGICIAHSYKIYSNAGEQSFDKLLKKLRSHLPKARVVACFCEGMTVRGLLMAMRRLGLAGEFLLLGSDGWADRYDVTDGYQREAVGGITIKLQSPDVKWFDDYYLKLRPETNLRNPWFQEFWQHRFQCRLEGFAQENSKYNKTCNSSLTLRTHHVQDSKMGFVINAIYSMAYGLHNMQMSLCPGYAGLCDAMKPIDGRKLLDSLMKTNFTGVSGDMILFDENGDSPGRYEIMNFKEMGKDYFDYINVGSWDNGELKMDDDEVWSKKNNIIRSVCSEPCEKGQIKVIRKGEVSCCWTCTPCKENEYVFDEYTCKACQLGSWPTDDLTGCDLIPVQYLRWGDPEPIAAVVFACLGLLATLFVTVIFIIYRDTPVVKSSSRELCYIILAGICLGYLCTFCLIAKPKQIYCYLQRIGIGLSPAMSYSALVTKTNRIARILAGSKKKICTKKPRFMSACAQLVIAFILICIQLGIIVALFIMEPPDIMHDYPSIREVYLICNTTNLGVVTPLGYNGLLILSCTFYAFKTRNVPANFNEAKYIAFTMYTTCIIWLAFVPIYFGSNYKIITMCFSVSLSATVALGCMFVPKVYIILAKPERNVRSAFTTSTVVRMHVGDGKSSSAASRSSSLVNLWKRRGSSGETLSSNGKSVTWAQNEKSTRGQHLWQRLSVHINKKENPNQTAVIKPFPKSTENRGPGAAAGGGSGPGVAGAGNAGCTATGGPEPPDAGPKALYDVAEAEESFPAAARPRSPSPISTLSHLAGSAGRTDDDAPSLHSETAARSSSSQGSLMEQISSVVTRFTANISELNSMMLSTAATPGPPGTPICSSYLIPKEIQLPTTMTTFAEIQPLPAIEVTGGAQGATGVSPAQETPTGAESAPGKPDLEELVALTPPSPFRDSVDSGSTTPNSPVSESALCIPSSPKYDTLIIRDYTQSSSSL

The first data set addresses T1, rat mGlu 5a receptor (Rattus norvegicus, UniProt P31424).
T1 construct: expressed in transfected cells; host or cells: EBNA cells (transient transfection)
Description: [Ca2+]i FLIPR antagonist assay on mGlu 5a transfected EBNA cells against 10 μM glutamate. The settings on record: rat mGlu 5a transiently transfected EBNA cells; against 10 μM glutamate as agonist. The class given is cell-based. On the procedure:
The pharmacological activity of the compounds of the present invention was tested using the following methods: cDNA encoding rat mGlu 5a receptor was transiently transfected into EBNA cells using a procedure described by E.-J. Schlaeger and K. Christensen (Transient gene expression in mammalian cells grown in serum-free suspension culture, Cytotechnology 1999, 30, 71-83). [Ca^2+]i measurements were performed on mGlu 5a transfected EBNA cells after incubation of the cells with Fluo 3-AM (obtainable by FLUKA, 0.5 μM final concentration) for 1 hour at 37° C. followed by 4 washes with assay buffer (DMEM supplemented with Hank's salt and 20 mM HEPES. [Ca^2+]i measurements were done using a fluorometric imaging plate reader (FLIPR, Molecular Devices Corporation, La Jolla, Calif., USA). When compounds were evaluated as antagonists they were tested against 10 μM glutamate as agonist.
The inhibition (antagonist) curves were fitted with a four parameter logistic equation giving IC50, and Hill coefficient using the iterative non linear curve fitting software Origin (Microcal Software Inc., Northampton, Mass., USA).
The molecule `Cc1ccc(-c2cn3ccc(Cl)cc3n2)cc1C` [Example 1, 7-Chloro-2-(3,4-dimethyl-phenyl)-imidazo[1,2-a]pyridine] had a half-maximal inhibitory concentration (IC50) of 100 nM. This counts as sub-micromolar.
Same read-out and setting: for `COc1ccc(-c2cn3ccc(C)cc3n2)cc1OC` [Example 2, 2-(3,4-Dimethoxy-phenyl)-7-methyl-imidazo[1,2-a]pyridine] the value was 1880 nM; for `COc1ccc(-c2cn3ccccc3n2)cc1OC` [Example 3, 2-(3,4-Dimethoxy-phenyl)-imidazo[1,2-a]pyridine], 6800 nM; for `COc1ccn2cc(-c3ccc(C)c(C)c3)nc2c1` [Example 4, 2-(3,4-Dimethyl-phenyl)-7-methoxy-imidazo[1,2-a]pyridine], 140 nM.
The same measure, in the same setting: in the case of `COc1ccn2cc(-c3ccc(OC)c(OC)c3)nc2c1` [Example 5, 2-(3,4-Dimethoxy-phenyl)-7-methoxy-imidazo[1,2-a]pyridine] it was 3300 nM; in that of `Cc1ccc(-c2cn3ccccc3n2)cc1C.Cl` [Example 6, 2-(3,4-Dimethyl-phenyl)-imidazo[1,2-a]pyridine hydrochloride], 37 nM.
In the case of `Cc1ccn2cc(-c3ccc(C)c(C)c3)nc2c1` [Example 7, 2-(3,4-Dimethyl-phenyl)-7-methyl-imidazo[1,2-a]pyridine], the IC50 came out at 280 nM.
On the same count and under the same terms, for `Fc1ccc(-c2cn3ccccc3n2)cc1Br` [Example 8, 2-(3-Bromo-4-fluoro-phenyl)-imidazo[1,2-a]pyridine] the value was 690 nM.
As to `COc1cc(-c2cn3ccccc3n2)ccc1OCc1ccccc1` [Example 9, 2-(4-Benzyloxy-3-methoxy-phenyl)-imidazo[1,2-a]pyridine], the half-maximal inhibitory concentration (IC50) came out at 830 nM.
Same read-out and setting: in the case of `c1ccn2cc(-c3ccc4c(c3)CCC4)nc2c1` [Example 10, 2-Indan-5-yl-imidazo[1,2-a]pyridine] it was 930 nM.
`Brc1cccc(-c2cn3ccccc3n2)c1` [Example 11, 2-(3-Bromo-phenyl)-imidazo[1,2-a]pyridine] registered an IC50 of 950 nM.
Same read-out and setting: for `Ic1cccc(-c2cn3ccccc3n2)c1` [Example 12, 2-(3-Iodo-phenyl)-imidazo[1,2-a]pyridine] the value was 970 nM; for `Clc1cccc(-c2cn3ccccc3n2)c1` [Example 13, 2-(3-Chloro-phenyl)-imidazo[1,2-a]pyridine], 1230 nM.
The same measure, in the same setting: in the case of `Cc1cccc(-c2cn3ccccc3n2)c1` [Example 14, 2-(3-Methyl-phenyl)-imidazo[1,2-a]pyridine] it was 1550 nM; in that of `c1ccc2oc(-c3cn4ccccc4n3)cc2c1` [Example 15, 2-Benzofuran-2-yl-imidazo[1,2-a]pyridine], 1660 nM.
The same measure, in the same setting: in the case of `c1ccc2c(-c3cn4ccccc4n3)csc2c1` [Example 16, 2-Benzo[b]thiophen-3-yl-imidazo[1,2-a]pyridine] it was 2760 nM.
Turning to `FC(F)(F)c1cccc(-c2cn3ccccc3n2)c1` [Example 17, 2-(3-Trifluoromethyl-phenyl)-imidazo[1,2-a]pyridine], the IC50 was determined as 2790 nM.
In turn, `c1ccn2cc(-c3ccc4c(c3)CCO4)nc2c1` [Example 18, 2-(2,3-Dihydro-benzofuran-5-yl)-imidazo[1,2-a]pyridine] yielded an IC50 of 2860 nM.
Still for that read-out and setting: for `Fc1cccc(-c2cn3ccccc3n2)c1` [Example 19, 2-(3-Fluoro-phenyl)-imidazo[1,2-a]pyridine] the value was 3410 nM; for `CCc1ccn2cc(-c3ccc(C)c(C)c3)nc2c1` [Example 20, 2-(3,4-Dimethyl-phenyl)-7-ethyl-imidazo[1,2-a]pyridine], 3640 nM.
Same read-out and setting: in the case of `Cc1ccc(-c2cn3ccccc3n2)s1` [Example 21, 2-(5-Methyl-thiophen-2-yl)-imidazo[1,2-a]pyridine] it was 6130 nM; in that of `Cc1ccn2cc(-c3ccccc3)nc2c1` [Example 22, 7-Methyl-2-phenyl-imidazo[1,2-a]pyridine], 7500 nM.
`Cc1ccc(-c2cn3ccccc3n2)cc1` [Example 23, 2-(4-Methyl-phenyl)-imidazo[1,2-a]pyridine] showed an IC50 of 8770 nM.
Consider `Cc1cc(-c2cn3ccccc3n2)c(C)s1` [Example 24, 2-(2,5-Dimethyl-thiophen-3-yl)-imidazo[1,2-a]pyridine], for which the IC50 is 580 nM.
`COc1cccc(-c2cn3ccccc3n2)c1` [Example 25, 2-(3-Methoxy-phenyl)-imidazo[1,2-a]pyridine]: the IC50 was 1650 nM.
Consider `COc1ccc(-c2cn3cc(C)ccc3n2)cc1OC` [Example 26, 2-(3,4-Dimethoxy-phenyl)-6-methyl-imidazo[1,2-a]pyridine], for which the IC50 was found to be 8300 nM.
Take `c1ccn2cc(-c3ccc4c(c3)OCCO4)nc2c1` [Example 27, 2-(2,3-Dihydro-benzo [1,4]dioxin-6-yl)-imidazo[1,2-a]pyridine]: the IC50 came out at 990 nM. Compared with the last molecule, the IC50 is about 8.4-fold lower.
In turn, `Cc1ccc(-c2cn3cc(C)ccc3n2)cc1` [Example 28, 6-Methyl-2-(4-methyl-phenyl)-imidazo[1,2-a]pyridine] came in with an IC50 of 10000 nM. Against the preceding molecule, the IC50 is about 10-fold higher.
Same read-out and setting: in the case of `O=[N+]([O-])c1cccc(-c2cn3ccccc3n2)c1` [Example 29, 2-(3-Nitro-phenyl)-imidazo[1,2-a]pyridine] it was 10000 nM.

The same data set, now with this note: statement in words, compared with compounds of formula I.
`Cc1ccc(-c2nc3ccc(C)cn3c2CC(=O)N(C)C)cc1` [N,N,6-trimethyl-2-(4-methylphenyl)-imidazo[1,2-a]pyridine-3-acetamide, reference compound]: the “affinity toward the mGluR5 receptor” value was “does not possess the affinity toward the mGluR5 receptor”.

Another data set addresses central benzodiazepine receptors. Description: Inhibition of binding of tritiated flumazenil to benzodiazepine receptors in rat cortex. The settings on record: [3H]flumazenil, Cheng & Prusoff. On the procedure:
The affinity of compounds of formula I to the central benzodiazepine receptors in vitro was also tested using standard methods as for example described in Nature 1981, 294, 763-765 and J. Neurochemistry 1981, 37, 714-722. According to these methods, the inhibition of the binding of tritiated flumazenil to the specific benzodiazepine receptors in the cortex of rats by the respective test substances is determined and the inhibition dissociation constant (Ki) of each test compound is determined according to the method of Cheng & Prusoff (1973).
As for `Cc1ccc(-c2cn3ccccc3n2)cc1C.Cl` [Example 6, 2-(3,4-Dimethyl-phenyl)-imidazo[1,2-a]pyridine hydrochloride], the “pKi (negative logarithm of the Ki)” value was 5.2.

Tested on in a further data set: not given
Test: not given
Settings: not given
As to `Cc1ccc(-c2cn3ccc(Cl)cc3n2)cc1C` [Example 1, 7-Chloro-2-(3,4-dimethyl-phenyl)-imidazo[1,2-a]pyridine], the melting point amounted to 144 °C.
Molecule `COc1ccc(-c2cn3ccc(C)cc3n2)cc1OC` [Example 2, 2-(3,4-Dimethoxy-phenyl)-7-methyl-imidazo[1,2-a]pyridine] registered a melting point of 163 °C.
With `COc1ccn2cc(-c3ccc(C)c(C)c3)nc2c1` [Example 4, 2-(3,4-Dimethyl-phenyl)-7-methoxy-imidazo[1,2-a]pyridine], the melting point worked out at 175 °C.
The same measure, in the same setting: in the case of `COc1ccn2cc(-c3ccc(OC)c(OC)c3)nc2c1` [Example 5, 2-(3,4-Dimethoxy-phenyl)-7-methoxy-imidazo[1,2-a]pyridine] it was 142 °C.

In the next data set the test system is central benzodiazepine receptors.
Test: not given
The following applies: from cited reference (Eur. J. Pharmacol. 1986, 130(3), 257-263); cited from earlier work.
As for `Cc1ccc(-c2nc3ccc(C)cn3c2CC(=O)N(C)C)cc1` [N,N,6-trimethyl-2-(4-methylphenyl)-imidazo[1,2-a]pyridine-3-acetamide, reference compound], the “agonist properties at central benzodiazepine receptors” value is “possesses agonist properties at central benzodiazepine receptors”.
